Results: ChEMBL document CHEMBL3046824, “Synthesis and pharmacological evaluation of newer thiazolo [3,2-a] pyrimidines for anti-inflammatory and antinociceptive activity” (Med Chem Res, 2010)

Columns and labels:
Mus musculus = test: Antinociceptive activity in albino Mus musculus (mouse) assessed as increase in latency for tail withdrawal at 20 mg/kg, po measured after 4 hr by thermal stimulus method relative to control; assay type: functional
Rattus norvegicus [1] = test: Anti-inflammatory activity in albino Rattus norvegicus (rat) assessed as inhibition of carrageenan-induced paw edema at 25 mg/kg, po administered 1 hr prior to carrageenan-challenge measured after 1 to 3 hr relative to control; assay type: functional
[2] = Ulcerogenic activity in ip dosed fasted albino Rattus norvegicus (rat) measured after 8 hr; assay type: toxicity, organism-based; settings: in vivo, read-out: UD50
Rattus norvegicus [3] = test: Anti-inflammatory activity in albino Rattus norvegicus (rat) assessed as inhibition of carrageenan-induced paw edema at 50 mg/kg, po administered 1 hr prior to carrageenan-challenge measured after 1 to 3 hr relative to control; assay type: functional
[4] = Toxicity in ip dosed albino Mus musculus (mouse) measured after 24 hr; assay type: organism-based; settings: in vivo, read-out: ALD50
Rattus norvegicus [5] = test: Anti-inflammatory activity in albino Rattus norvegicus (rat) assessed as inhibition of carrageenan-induced paw edema at 100 mg/kg, po administered 1 hr prior to carrageenan-challenge measured after 1 to 3 hr relative to control; assay type: functional

SMILES: CC1=C(C(=O)Nc2ccc(F)cc2)C(c2ccc(Br)cc2)n2c(s/c(=C/c3ccc(Cl)cc3Cl)c2=O)=N1 (centres undefined)
- Activity (Mus musculus): 31%
- inhibition in vivo at 25 mg/kg (Rattus norvegicus [1]): 14%

SMILES: CC1=C(C(=O)Nc2ccc(F)cc2)C(c2ccc(Cl)cc2)n2c(s/c(=C/c3ccc(F)cc3)c2=O)=N1 (centres undefined)
- Activity (Mus musculus): 172%
- TD50 at 8 h [2]: 240 mg/kg
- inhibition in vivo at 50 mg/kg (Rattus norvegicus [3]): 60%
- inhibition in vivo at 25 mg/kg (Rattus norvegicus [1]): 44%
- LD50 at 24 h [4]: > 1000 mg/kg
- inhibition in vivo at 100 mg/kg (Rattus norvegicus [5]): 80%

SMILES: CC1=C(C(=O)Nc2ccc(F)cc2)C(c2ccc(F)cc2)n2c(s/c(=C/c3ccc(Cl)cc3)c2=O)=N1 (centres undefined)
- Activity (Mus musculus): 189%
- TD50 at 8 h [2]: 175 mg/kg
- inhibition in vivo at 50 mg/kg (Rattus norvegicus [3]): 50%
- inhibition in vivo at 25 mg/kg (Rattus norvegicus [1]): 47%
- LD50 at 24 h [4]: > 1000 mg/kg
- inhibition in vivo at 100 mg/kg (Rattus norvegicus [5]): 78%

SMILES: CC1=C(C(=O)Nc2ccc(F)cc2)C(c2ccc(Cl)cc2)n2c(s/c(=C/c3ccc(Cl)cc3Cl)c2=O)=N1 (centres undefined)
- Activity (Mus musculus): 46%
- inhibition in vivo at 25 mg/kg (Rattus norvegicus [1]): 14%

SMILES: COc1ccc(/C=c2/sc3n(c2=O)C(c2ccc([N+](=O)[O-])cc2)C(C(=O)Nc2ccc(F)cc2)=C(C)N=3)cc1 (centres undefined)
- Activity (Mus musculus): 46%
- inhibition in vivo at 25 mg/kg (Rattus norvegicus [1]): 12%

SMILES: CC1=C(C(=O)Nc2ccc(F)cc2)C(c2ccc(Cl)cc2)n2c(s/c(=C/c3ccc(Br)cc3)c2=O)=N1 (centres undefined)
- Activity (Mus musculus): 76%
- inhibition in vivo at 25 mg/kg (Rattus norvegicus [1]): 35%

SMILES: CC1=C(C(=O)Nc2ccc(F)cc2)C(c2ccc(Cl)cc2)n2c(s/c(=C/c3ccccc3Cl)c2=O)=N1 (centres undefined)
- Activity (Mus musculus): 63%
- inhibition in vivo at 25 mg/kg (Rattus norvegicus [1]): 16%

SMILES: CC1=C(C(=O)Nc2ccc(F)cc2)C(c2ccccc2[N+](=O)[O-])n2c(s/c(=C/c3ccc(Br)cc3)c2=O)=N1 (centres undefined)
- Activity (Mus musculus): 100%
- inhibition in vivo at 25 mg/kg (Rattus norvegicus [1]): 16%

SMILES: CC1=C(C(=O)Nc2ccc(F)cc2)C(c2ccc(F)cc2)n2c(s/c(=C/c3ccccc3Cl)c2=O)=N1 (centres undefined)
- Activity (Mus musculus): 119%
- inhibition in vivo at 25 mg/kg (Rattus norvegicus [1]): 19%

SMILES: CC1=C(C(=O)Nc2ccc(F)cc2)C(c2ccc(Br)cc2)n2c(s/c(=C/c3ccc(C)cc3)c2=O)=N1 (centres undefined)
- Activity (Mus musculus): 72%
- inhibition in vivo at 25 mg/kg (Rattus norvegicus [1]): 11%

SMILES: CC1=C(C(=O)Nc2ccc(F)cc2)C(c2ccccc2[N+](=O)[O-])n2c(s/c(=C/c3ccccc3Cl)c2=O)=N1 (centres undefined)
- Activity (Mus musculus): 72%
- inhibition in vivo at 25 mg/kg (Rattus norvegicus [1]): 12%

SMILES: CC1=C(C(=O)Nc2ccc(F)cc2)C(c2ccc([N+](=O)[O-])cc2)n2c(s/c(=C/c3ccccc3)c2=O)=N1 (centres undefined)
- Activity (Mus musculus): 93%
- inhibition in vivo at 25 mg/kg (Rattus norvegicus [1]): 7%

SMILES: CC1=C(C(=O)Nc2ccc(F)cc2)C(c2ccc([N+](=O)[O-])cc2)n2c(s/c(=C/c3ccc(Cl)cc3Cl)c2=O)=N1 (centres undefined)
- Activity (Mus musculus): 121%
- inhibition in vivo at 25 mg/kg (Rattus norvegicus [1]): 17%

SMILES: CC1=C(C(=O)Nc2ccc(F)cc2)C(c2ccc(Br)cc2)n2c(s/c(=C/c3ccccc3)c2=O)=N1 (centres undefined)
- Activity (Mus musculus): 76%
- inhibition in vivo at 25 mg/kg (Rattus norvegicus [1]): 5%

SMILES: CC1=C(C(=O)Nc2ccc(F)cc2)C(c2ccc(F)cc2)n2c(s/c(=C/c3ccc([N+](=O)[O-])cc3)c2=O)=N1 (centres undefined)
- Activity (Mus musculus): 121%
- inhibition in vivo at 25 mg/kg (Rattus norvegicus [1]): 30%

SMILES: CC1=C(C(=O)Nc2ccc(F)cc2)C(c2ccc([N+](=O)[O-])cc2)n2c(s/c(=C/c3ccc(Cl)cc3)c2=O)=N1 (centres undefined)
- Activity (Mus musculus): 104%
- inhibition in vivo at 25 mg/kg (Rattus norvegicus [1]): 23%

SMILES: CC1=C(C(=O)Nc2ccc(F)cc2)C(c2ccc(Br)cc2)n2c(s/c(=C/c3ccc(Cl)cc3)c2=O)=N1 (centres undefined)
- Activity (Mus musculus): 104%
- inhibition in vivo at 25 mg/kg (Rattus norvegicus [1]): 25%

SMILES: COc1ccc(/C=c2/sc3n(c2=O)C(c2ccc(Br)cc2)C(C(=O)Nc2ccc(F)cc2)=C(C)N=3)cc1OC (centres undefined)
- Activity (Mus musculus): 23%
- inhibition in vivo at 25 mg/kg (Rattus norvegicus [1]): 8%

SMILES: CCCCC1C(=O)N(c2ccccc2)N(c2ccccc2)C1=O [PHENYLBUTAZONE]
- TD50 at 8 h [2]: 70.2 mg/kg
- inhibition in vivo at 50 mg/kg (Rattus norvegicus [3]): 55%
- inhibition in vivo at 25 mg/kg (Rattus norvegicus [1]): 43%
- LD50 at 24 h [4]: > 1000 mg/kg
- inhibition in vivo at 100 mg/kg (Rattus norvegicus [5]): 70%

SMILES: CC1=C(C(=O)Nc2ccc(F)cc2)C(c2ccc(Cl)cc2)n2c(s/c(=C/c3ccccc3[N+](=O)[O-])c2=O)=N1 (centres undefined)
- Activity (Mus musculus): 82%
- inhibition in vivo at 25 mg/kg (Rattus norvegicus [1]): 16%

SMILES: CC1=C(C(=O)Nc2ccc(F)cc2)C(c2ccc([N+](=O)[O-])cc2)n2c(s/c(=C/c3ccccc3Cl)c2=O)=N1 (centres undefined)
- Activity (Mus musculus): 140%
- inhibition in vivo at 25 mg/kg (Rattus norvegicus [1]): 19%

SMILES: O=C(O)Cc1ccccc1Nc1c(Cl)cccc1Cl [DICLOFENAC]
- Activity (Mus musculus): 274%
